{"source": "patent US20130123208A1", "about": "“METHOD OF TREATING MULTIPLE SCLEROSIS WITH ADENOSINE RECEPTOR AGONISTS” (THE REGENTS OF THE UNIVERSITY OF COLORADO, a body …, priority 2010, published 2013)", "key": {"rat spines (EAE)": {"test_system": "rat spines (EAE)", "test": "FLAIR and T2-weighted MRI on rat spines in EAE", "type": "in vivo", "details": "ATL313 treated animals with preserved motor scores", "method": "ATL313 (4-{3-[6-amino-9-(5-cyclopropylcarbamoyl-3,4-dihydroxy-tetrahydro-furan-2-yl)-9H-purin-2-yl]-prop-2-ynyl}-piperidine-1-carboxylic acid methyl ester) (single bolus 1 μM-not shown and 10 μM) was used in the EAE model as described above (8-9 rats/group). The change in motor symptoms and the survival curve for ATL313 (10 μM) are shown in FIGS. 4A and 4B, respectively. 1 μM ATL313 produced a reduction in motor score lasting approximately 10 days."}, "rats with EAE": {"test_system": "rats with EAE", "test": "EAE model, survival curve (time to motor score 6 or higher)", "type": "in vivo, Male Dark Agouti rats", "text": "In a separate group of rats from Example 1, MOG was intradermally administered as described above. […] The time at which motor score reached 6 or higher after the onset of motor symptoms is represented on the survival curve shown in FIG. 2. […] A single intrathecal injection of an A2A agonist, CGS21680, improved survival percentage in rats with EAE."}, "[1]": {"test_system": "rats with EAE (MOG-induced Experimental Autoimmune Encephalitis)", "test": "EAE model, motor score after single intrathecal bolus", "protocol": "The EAE model described above was used. Motor score was assessed three days before and daily post MOG administration (8.25 ug intradermally). At the onset of motor symptoms (partial tail paralysis, motor score 1) rats were randomly injected with an A2A agonist, CGS21680 (3-[4-[2-[[6-amino-9-[(2R,3R,4S,5S)-5-(ethylcarbamoyl)-3,4-dihydroxy-oxolan-2-yl]purin-2-yl]amino]ethyl]phenyl]propanoic acid) (10 μM) or vehicle."}, "neuropathic pain": {"test_system": "neuropathic pain", "details": "duration of effect ~35 days; cited from earlier work"}, "[2]": {"test_system": "cd68 (classically activated macrophage marker)", "test": "Immunohistochemistry of the dorsal spinal cord, cd68", "type": "in vivo, rats", "details": "motor score 6 or higher or 24 days post onset, vs vehicle, P<0.05 (FIG. 3)"}, "[3]": {"test_system": "OX-42 (microglial activation marker)", "test": "Immunohistochemistry of the dorsal spinal cord, OX-42", "type": "in vivo, rats", "details": "motor score 6 or higher or 24 days post onset, vs vehicle, P<0.05 (FIG. 3)"}}, "note": "“Also recorded” adds a separate entry of the source.", "data": [{"molecule": "COC(=O)N1CCC(CC#Cc2nc(N)c3ncn([C@@H]4O[C@H](C(=O)NC5CC5)C(O)C4O)c3n2)CC1", "note": "(stereo in doubt) [ATL313, 4-{3-[6-amino-9-(5-cyclopropylcarbamoyl-3,4-dihydroxy-tetrahydro-furan-2-yl)-9H-purin-2-yl]-prop-2-ynyl}-piperidine-1-carboxylic acid methyl ester]", "values": [{"measurement": "MRI abnormalities (hyperintensity) of spine", "setting": "rat spines (EAE)", "result": "only minimal abnormalities"}, {"measurement": "rats still alive", "setting": "rats with EAE; 10 μM intrathecal, at 70 days, with stabilized motor scores (FIG. 4B)", "result": "6/9"}, {"measurement": "survival rate", "setting": "rats with EAE; 10 μM single intrathecal injection, MOG+ATL313 vs MOG+vehicle (FIG. 4B)", "result": "increased survival rate"}, {"measurement": "survival", "setting": "rats with EAE; FIG. 6 legend", "result": "markedly enhances survival"}, {"measurement": "duration of attenuation of motor effects of EAE, at worst", "setting": "[1]; 5 ng intrathecal single bolus", "result": "~35", "unit": "days"}, {"measurement": "progression of motor impairment/dysfunction induced by EAE", "setting": "[1]; 5 ng intrathecal single bolus at initial onset of motor impairment (FIG. 5A)", "result": "good attenuation of progression of motor impairment/dysfunction"}, {"measurement": "number of animals where motor deterioration is arrested with no further progression", "setting": "[1]; 5 ng intrathecal, first group (FIG. 5B)", "result": 6}, {"measurement": "number of rats whose motor symptoms continued on the usual course at around day 35", "setting": "[1]; 5 ng intrathecal, second group (FIG. 5C)", "result": 3}, {"measurement": "duration of reduction in motor score", "setting": "[1]; 1 μM single intrathecal bolus", "result": "approximately 10 days"}, {"measurement": "duration of arrest of progression of motor score symptoms", "setting": "[1]; 10 μM single intrathecal injection (FIG. 4A)", "result": "> 80", "unit": "days"}, {"measurement": "duration of suppression of paralysis", "setting": "[1]; FIG. 6 legend, other sub-group", "result": "~4", "unit": "week"}, {"measurement": "paralysis", "setting": "[1]; FIG. 6 legend, surviving ATL313 rats", "result": "arrests paralysis in every surviving ATL313 rat"}, {"measurement": "neuropathic pain", "setting": "neuropathic pain", "result": "attenuates neuropathic pain"}]}, {"molecule": "CCNC(=O)[C@H]1O[C@@H](n2cnc3c(N)nc(NCCc4ccc(CCC(=O)O)cc4)nc32)[C@H](O)[C@@H]1O", "note": "[CGS21680, 3-[4-[2-[[6-amino-9-[(2R,3R,4S,5S)-5-(ethylcarbamoyl)-3,4-dihydroxy-oxolan-2-yl]purin-2-yl]amino]ethyl]phenyl]propanoic acid, reference compound]", "values": [{"measurement": "cd68 staining", "setting": "[2]", "result": "significant reduction"}, {"measurement": "percentage of survival", "setting": "rats with EAE; 10 μM intrathecal at onset of motor symptoms, day 25, vs vehicle, P<0.05 (FIG. 2)", "result": "significant difference in percentage of survival"}, {"measurement": "severity of motor symptoms (motor score)", "setting": "[1]; 10 μM, single intrathecal injection at onset of motor symptoms, vs vehicle (FIG. 1)", "result": "reduced the severity of motor symptoms; also recorded: attenuated motor symptoms"}, {"measurement": "OX-42 staining", "setting": "[3]", "result": "significant reduction"}]}]}
